Data: US20090233893A1, “Methods of Dissolving Beta-Sheet Proteins and Uses Thereof” (priority 2006, published 2009)
“And” between values parts separate entries of the source, which are not always exact repeats. Identical values can stand only once. Marks after values point to notes of the source that are not given here.

How the values were obtained:
[1] = target: T1, Aβ 40 E22Q mutant peptide (Homo sapiens, UniProt P05067, E693Q); test: Dissolution of Aβ 40 E22Q mutant peptide by metallized chelator, FTIR amide bands; type: biochemical; conditions: Aβ40 E22Q dissolved in 500 mM chelator/heavy water solution
T1 sequence (P05067 672-711 E693Q): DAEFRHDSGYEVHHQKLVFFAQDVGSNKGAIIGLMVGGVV
Description: (§1) Each metal salt-chelator solution was prepared with a slight excess of metal salt. Chelator-dissolved proteins were then lyophilized twice to eliminate water and resuspended in 200 μl aliquots of heavy water for spectral analysis.
(§2) Fourier Transform Infrared (FTIR) Spectroscopy: Metal chelator-dissolved β-sheet samples were injected into a sample cell with calcium fluoride windows and 0.05 mm path length. The instrument (Nicolet Magna JR 560 Spectrometer, ThermoNicolet, Madison, Wis.) resolution was 4 cm^−1; 1000 scans were collected.
(§3) Spectral subtraction as well as curve fitting and second derivative analysis of the amide I bands was carried out with the software program, Grams/32 Spectral Notebase, version 4.02, level 1 (ThermoNicolet, Madison, Wis.). Curvefitting parameters were not restricted; the fraction of Lorentzian line shape was allowed to vary. The second derivative analysis was carried out using a Savitsky-Golay algorithm, using either a third or fourth degree polynomial fit.

[2] = target: T2, Aβ 40 wild type peptide (Homo sapiens, UniProt P05067); test: Dissolution of Aβ 40 wild type peptide by metallized chelator, FTIR amide bands; type: biochemical; conditions: Aβ40 wt dissolved in 500 mM chelator/heavy water solution
T2 construct: The amide I band for the Aβ 40 wild type peptide; gift of Dr. Jorge Ghiso
Description: as §1, §2, §3

[3] = Environmental Protection Agency (1999); cited from earlier work
[4] = test system: wool; conditions: wool tertiary structure is a bundle of α-helices; selectivity
From the text: Wool's tertiary structure is a bundle of α-helices. […] The polyproline II conformation of collagen places its dihedral angles in the immediate vicinity of those for the β-sheet structure on a Ramachandran plot. Thus, choice of cation confers selectivity.

[5] = target: T3, Aβ 42 wild type peptide (Homo sapiens, UniProt P05067); test: Dissolution of Aβ 42 wild type peptide by metallized chelator, FTIR amide bands; type: biochemical; conditions: Aβ42 wt dissolved in 500 mM chelator/heavy water solution
T3 construct: The amide I band for the Aβ 42 wild type peptide in the solid state; gift of Dr. Jorge Ghiso
Description: as §1, §2, §3

[6] = target: Aβ 40 E22Q (Homo sapiens, UniProt P05067, E693Q); type: biochemical; conditions: Aβ 40 E22Q incubated at room temperature for 67 hours, pH 7.4
[7] = test system: B. mori fibroin; conditions: for Dissolution of fibroin: basic 500 mM solution, 1:1 molar ratio
[8] = test system: tau paired helical filaments; conditions: basic 500 mM solution, 1:1 molar ratio
[9] = target: T4, Aβ 42 E22Q mutant peptide (Homo sapiens, UniProt P05067, E693Q); test: Dissolution of Aβ 42 E22Q mutant peptide by metallized chelator, FTIR amide bands; type: biochemical; conditions: Aβ42 E22Q dissolved in 500 mM chelator/heavy water solution
T4 sequence (P05067 672-713 E693Q): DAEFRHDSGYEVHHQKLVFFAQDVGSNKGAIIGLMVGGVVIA
Description: as §1, §2, §3

[10] = test system: human erythrocytes; conditions: Funder et al., 1978; cited from earlier work

Row | SMILES | Amide I peak of metal chelator-dissolved peptide [1] | Amide II peak of metal chelator-dissolved peptide [1] [cm⁻¹] | Amide I peak of metal chelator-dissolved peptide [2] | Amide II peak of metal chelator-dissolved peptide [2] [cm⁻¹] | Toxicity, EPA determination [3] | Dissolution of wool [4] | Amide I peak of metal chelator-dissolved peptide [5] | Amide II peak of metal chelator-dissolved peptide [5] | Thioflavin T fluorescence yield less than that of the chelator-free aliquot [6] [%] | Dissolution of fibroin [7] | Speed of the dissolution process for the silk or fibroin fiber ([7]; judged by eye, more rapid than in the Li^+ ethylene diamine bromide solution) | Dissolution of paired helical filaments [8] | Amide I peak of metal chelator-dissolved peptide [9] | Amide II peak of metal chelator-dissolved peptide [9] [cm⁻¹] | Increase of lithium influx into human erythrocytes over lithium chloride [10]
1 | NCCN.[Cu+2].[OH-].[OH-] [Cu^2+en, Cu^2+ ethylene diamine hydroxide] | 1673 cm⁻¹ | 1590 | 1673 cm⁻¹ | 1594 | safe for human consumption | not found to dissolve | 1673 cm⁻¹ | 1534 cm⁻¹ and 1591 cm⁻¹ | 27 | can be dissolved | instantaneous on contact | can be dissolved | 1673 cm⁻¹ | 1590 | –
2 | NCCN.[Br-].[Li+] [Li^+en, Li^+ ethylene diamine bromide] | 1621‡ cm^−1 and 1673 cm^−1 | 1531 | 1629 cm⁻¹ and 1646 cm⁻¹ and 1673 cm⁻¹ | 1562 | – | not found to dissolve | 1626‡ cm^−1 and 1673 cm^−1 | 1562 cm⁻¹ | – | can be dissolved | – | can be dissolved | 1625‡ cm^−1 and 1673 cm^−1 | 1531 | –
3 | O=C([O-])O.[Li+] [Lithium bicarbonate] | – | – | – | – | – | – | – | – | – | – | – | – | – | – | twelve-fold
